Test results published in patent US6790958B2, “Purine inhibitors of cyclin dependent kinase 2 & IKBA” (priority 1996, dated 2004).

Tests used:
rat carotid artery = assay: Neointima formation following balloon angioplasty, rat carotid artery model; assay type: in vivo; details: 5 mg/mL, acute local delivery, 14 days after injury, treated vs untreated segment
From the text: In this example, the left common carotid arteries of adult male rats (n=10 per experimental group) were surgically injured using a Fogarty arterial embolectomy catheter. Immediately after injury, the common carotid artery was bisected with a vascular clamp, thereby establishing an untreated and treated segment. A drug delivery catheter was then inserted into the distal half of the common carotid. After drug delivery, the catheter was removed and excess drug was washed out by removing the vascular clamp and re-establishing blood flow before closing the artery. The animals were allowed to recover for 14 days before harvesting the common carotid artery. The harvested tissue was sectioned and the neointimal area was digitized and measured with a computer planimetery system. For each animal, 15 measurements were averaged for the untreated segment and 15 for the treated. {2-[(2-aminoethyl)amino]-9-(methylethyl)purin-6-yl}[(4-chlorophenyl)methyl]amine was administered at a dose of 5 mg/mL reducing the neointimal area about 90% in comparison to the 6% reduction of saline alone.

[1] = system: PupVSMC rat neonatal aortic smooth muscle cells; assay: Cell proliferation assay, PupVSMC; assay type: cell-based
Experimental: (§1) Early passage rat aortic smooth muscle cells (CV Therapeutics Cell repository) were seeded in 48 well dishes (Falcon, […]) at a density of 20,000 cells/ml of DME containing 5% heat inactivated bovine serum. The cells were incubated in a standard tissue culture incubator for 48 hr. The medium was aspirated and the wells were replenished with 0.2 ml of fresh medium. Compounds of this invention were added at concentrations ranging from 100 to 0.37 μg/ml. After 48 hr incubation, the medium was aspirated and the cultures were treated with 0.2 ml of saline 0.25 μl of phenozine methosulfate solution containing MTS (Cell Titer 96® Aqueous Non-radioactive cell proliferation assay kit, Catalog # G 5430, Promega, 2800 Woods Hollow Road, Madison, Wis. 53711-5399).
(§2) Similar assays were performed using the following cell lines; P388—mouse lymphoid neoplasm; L1210—mouse lympheytic leukemia; Caco2 human colon adenocarcinoma; MCF7 human breast adenocarcinoma; PupVSMC rat neonatal aortic smooth muscle cells; Ovcar human ovarian Carcinoma; Pancl human pancreatic adenocarcinoma; and HUVEC human umbilical cord endothelial cells.

[2] = system: MCF7 human breast adenocarcinoma; assay: Cell proliferation assay, MCF7; assay type: cell-based; details: MCF7 cells
Experimental: as §1, §2

[3] = system: P388 mouse lymphoid neoplasm; assay: Cell proliferation assay, P388; assay type: cell-based; details: P388 cells
Experimental: as §1, §2

[4] = system: Ovcar human ovarian Carcinoma; assay: Cell proliferation assay, OvCar; assay type: cell-based; details: OvCar cells
Experimental: as §1, §2

[5] = system: Caco2 human colon adenocarcinoma; assay: Cell proliferation assay, Caco2; assay type: cell-based; details: Caco2 cells
Experimental: as §1, §2

[6] = system: Pancl human pancreatic adenocarcinoma; assay: Cell proliferation assay, Panc1; assay type: cell-based; details: Panc 1 cells
Experimental: as §1, §2

[7] = system: L1210 mouse lympheytic leukemia; assay: Cell proliferation assay, L1210; assay type: cell-based; details: L 120 cells
Experimental: as §1, §2

Row | IC50 (μg/ml) for Inhibition of Cell Proliferation, MCF7 [2] | IC50 (μg/ml) for Inhibition of Cell Proliferation, P 388 [3] | IC50 (μg/ml) for Inhibition of Cell Proliferation, OvCar [4] | IC50 (μg/ml) for Inhibition of Cell Proliferation, Caco2 [5] | IC50 (μg/ml) for Inhibition of Cell Proliferation, Panc 1 [6] | IC50 (μg/ml) for Inhibition of Cell Proliferation, L 120 [7] | SMILES | reduction of the neointimal area (rat carotid artery) | inhibitory activity, Pup VSMC ([1]; Rat neonatal aortic smooth muscle cells, Table 9, the values are: IC50) | IC50 (μg/ml) for Inhibition of Cell Proliferation, PupVSMC ([1]; PupVSMC cells, Table 8)
1 | – | – | – | – | – | – | CC(C)n1cnc2c(NCc3ccc(Cl)cc3)nc(NCCN)nc21 [{2-[(2-aminoethyl)amino]-9-(methylethyl)purin-6-yl}[(4-chlorophenyl)methyl]amine] | about 90% | 0.1 µg/mL | –
2 | 4.0 µg/mL | 1.0 µg/mL | 7.0 µg/mL | 0.5 µg/mL | 4.0 µg/mL | 4.0 µg/mL | CC(C)n1cnc2c(Nc3ccc(-c4ccccc4)cc3)nc(N(CCO)CCO)nc21 [2-diethanolamino-6-(4-phenylanilino)-9-isopropylpurine] | – | – | 1.0 µg/mL
